# Test results published in patent publication US20240108623A1, “METHODS OF TREATING CANCER WITH POZIOTINIB” (BOARD OF REGENTS, THE UNIVERSITY OF TEXAS SYSTEM, priority 2021, published 2024).
# Tests used:
# Assay in all cases: Ba/F3 cell drug screening, Cell Titer Glo
# Assay type in all cases: cell-based
# [1] = target: T1, EGFR L858R/C797S (Homo sapiens, UniProt P00533, C797S/L858R); conditions: Ba/F3 cells expressing EGFR L858R/C797S; 72 hours
# T1 construct: expressed in transfected cells; host or cells: Ba/F3 (retroviral transduction, pBabe-Puro based vectors)
# Outline: (§1)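 Seven-dose TKI treatment, 72 h, of sorted EGFR-mutant Ba/F3 cells in EGF-supplemented medium; CellTiter-Glo read-out normalized to vehicle. Curve-fit IC50 from technical triplicates across duplicate or triplicate biological repeats.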
# [2] = target: T2, EGFR S768I (Homo sapiens, UniProt P00533, S768I); conditions: Ba/F3 cells expressing EGFR S768I; 72 hours
# T2 construct: expressed in transfected cells; host or cells: Ba/F3 (retroviral transduction, pBabe-Puro based vectors)
# Outline: as §1
# [3] = target: T3, EGFR G719A (Homo sapiens, UniProt P00533, G719A); conditions: Ba/F3 cells expressing EGFR G719A; 72 hours
# T3 construct: expressed in transfected cells; host or cells: Ba/F3 (retroviral transduction, pBabe-Puro based vectors)
# Outline: as §1
# [4] = target: T4, EGFR L718Q T790M (Homo sapiens, UniProt P00533, L718Q/T790M); conditions: Ba/F3 cells expressing EGFR L718Q T790M; 72 hours
# T4 construct: expressed in transfected cells; host or cells: Ba/F3 (retroviral transduction, pBabe-Puro based vectors)
# Outline: as §1
# [5] = target: T5, EGFR G719A T790M (Homo sapiens, UniProt P00533, G719A/T790M); conditions: Ba/F3 cells expressing EGFR G719A T790M; 72 hours
# T5 construct: expressed in transfected cells; host or cells: Ba/F3 (retroviral transduction, pBabe-Puro based vectors)
# Outline: as §1
# [6] = target: T6, EGFR S784F (Homo sapiens, UniProt P00533, S784F); conditions: Ba/F3 cells expressing EGFR S784F; 72 hours
# T6 construct: expressed in transfected cells; host or cells: Ba/F3 (retroviral, pBabe-Puro based vector; created by GeneScript from EGFR WT)
# Outline: as §1
# [7] = target: T7, EGFR L747P (Homo sapiens, UniProt P00533, L747P); conditions: Ba/F3 cells expressing EGFR L747P; 72 hours
# T7 construct: expressed in transfected cells; host or cells: Ba/F3 (retroviral transduction, pBabe-Puro based vectors)
# Outline: as §1
# [8] = target: T8, EGFR Ex19del L718Q (Homo sapiens, UniProt P00533, DEL746-750/L718Q); conditions: Ba/F3 cells expressing EGFR Ex19del L718Q; 72 hours
# T8 construct: expressed in transfected cells; host or cells: Ba/F3 (murine pro-B cells), retroviral transduction with pBabe-Puro based vectors
# Outline: as §1
# [9] = target: T9, EGFR Ex19del G796S (Homo sapiens, UniProt P00533, DEL746-750/G796S); conditions: Ba/F3 cells expressing EGFR Ex19del G796S; 72 hours
# T9 construct: expressed in transfected cells; host or cells: Ba/F3 (retroviral transduction, pBabe-Puro based vectors)
# Outline: as §1
# [10] = target: T10, EGFR E709K L858R (Homo sapiens, UniProt P00533, E709K/L858R); conditions: Ba/F3 cells expressing EGFR E709K L858R; 72 hours
# T10 construct: expressed in transfected cells; host or cells: Ba/F3 (retroviral, pBabe-Puro based vector)
# Outline: as §1
# [11] = target: T11, EGFR L718Q (Homo sapiens, UniProt P00533, L718Q); conditions: Ba/F3 cells expressing EGFR L718Q; 72 hours
# T11 construct: expressed in transfected cells; host or cells: Ba/F3 (retroviral transduction, pBabe-Puro based vectors)
# Outline: as §1
# [12] = target: T12, EGFR T790M (Homo sapiens, UniProt P00533, T790M); conditions: Ba/F3 cells expressing EGFR T790M; 72 hours
# T12 construct: expressed in transfected cells; host or cells: Ba/F3 (retroviral transduction, pBabe-Puro based vectors)
# Outline: as §1
# [13] = target: T13, EGFR L858R T790M V843I (Homo sapiens, UniProt P00533, L858R/T790M/V843I); conditions: Ba/F3 cells expressing EGFR L858R T790M V843I; 72 hours
# T13 construct: expressed in transfected cells; host or cells: Ba/F3 (retroviral transduction, pBabe-Puro based vectors)
# Outline: as §1
# [14] = target: T14, EGFR G724S T790M (Homo sapiens, UniProt P00533, G724S/T790M); conditions: Ba/F3 cells expressing EGFR G724S T790M; 72 hours
# T14 construct: expressed in transfected cells; host or cells: Ba/F3 (retroviral transduction, pBabe-Puro based vectors)
# Outline: as §1
# [15] = target: T15, EGFR R776H (Homo sapiens, UniProt P00533, R776H); conditions: Ba/F3 cells expressing EGFR R776H; 72 hours
# T15 construct: host or cells: Ba/F3 (retroviral transduction, pBabe-Puro based vectors)
# Outline: as §1
# [16] = test system: EGFR I740dupIPVAK; conditions: Ba/F3 cells expressing EGFR I740dupIPVAK; 72 hours
# Outline: as §1
compound,measurement,setting,value
C=CC(=O)N1CCC(Oc2cc3c(Nc4ccc(Cl)c(Cl)c4F)ncnc3cc2OC)CC1 [Poziotinib],Response of Cells Comprising PACC EGFR Mutations to Second-Generation TKIs,[1],0.2299
same,Response of Cells Comprising PACC EGFR Mutations to Second-Generation TKIs,[2],4.858
same,Response of Cells Comprising PACC EGFR Mutations to Second-Generation TKIs,[3],0.02575
same,Response of Cells Comprising T790M-like-R EGFR Mutations to Second-Generation TKIs,[4],6.487
same,Response of Cells Comprising T790M-like-S EGFR Mutations to Second-Generation TKIs,[5],0.4851
same,Response of Cells Comprising Classical-Like EGFR Mutations to Second-Generation TKIs,[6],0.08572
same,Response of Cells Comprising PACC EGFR Mutations to Second-Generation TKIs,[7],0.1338
same,Response of Cells Comprising PACC EGFR Mutations to Second-Generation TKIs,[8],0.107
same,Response of Cells Comprising PACC EGFR Mutations to Second-Generation TKIs,[9],0.2054
same,Response of Cells Comprising Classical-Like EGFR Mutations to Second-Generation TKIs,[10],0.005342
same,Response of Cells Comprising PACC EGFR Mutations to Second-Generation TKIs,[11],0.1927
same,Response of Cells Comprising T790M-like-S EGFR Mutations to Second-Generation TKIs,[12],4.671
same,Response of Cells Comprising T790M-like-S EGFR Mutations to Second-Generation TKIs,[13],5.408
same,Response of Cells Comprising T790M-like-R EGFR Mutations to Second-Generation TKIs,[14],2.924
same,Response of Cells Comprising PACC EGFR Mutations to Second-Generation TKIs,[15],0.01644
same,Response of Cells Comprising PACC EGFR Mutations to Second-Generation TKIs,[16],0.02483
